Results from patent US12391679B2, “Benzamide-substituted bicyclic imidazo- and pyrazolo-fused -pyridine, -pyrimide, and -pyridazine compounds for treatment of inflammatory diseases” (ONCO3R Therapeutics BV, priority 2019, dated 2025).

How the values were obtained:
[1] = target: T1, SIK1 (Homo sapiens, UniProt P57059); test: ADP-Glo kinase assay, SIK1; type: biochemical
T1 construct: purchased Carna Biosciences 02-131
In short: (§1)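 Luminescent ADP-formation read-out: enzyme–substrate mix + ATP, 120 min RT; ATP depletion 40 min RT; ADP→ATP conversion with luciferase/luciferin 30 min RT. Controls: 1% DMSO (negative), 10 μM staurosporine final (positive).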

[2] = target: T2, SIK2 (Homo sapiens, UniProt Q9H0K1); test: ADP-Glo kinase assay, SIK2; type: biochemical
T2 construct: purchased ThermoFisher Scientific PV4792
T2 sequence (Q9H0K1 whole entry): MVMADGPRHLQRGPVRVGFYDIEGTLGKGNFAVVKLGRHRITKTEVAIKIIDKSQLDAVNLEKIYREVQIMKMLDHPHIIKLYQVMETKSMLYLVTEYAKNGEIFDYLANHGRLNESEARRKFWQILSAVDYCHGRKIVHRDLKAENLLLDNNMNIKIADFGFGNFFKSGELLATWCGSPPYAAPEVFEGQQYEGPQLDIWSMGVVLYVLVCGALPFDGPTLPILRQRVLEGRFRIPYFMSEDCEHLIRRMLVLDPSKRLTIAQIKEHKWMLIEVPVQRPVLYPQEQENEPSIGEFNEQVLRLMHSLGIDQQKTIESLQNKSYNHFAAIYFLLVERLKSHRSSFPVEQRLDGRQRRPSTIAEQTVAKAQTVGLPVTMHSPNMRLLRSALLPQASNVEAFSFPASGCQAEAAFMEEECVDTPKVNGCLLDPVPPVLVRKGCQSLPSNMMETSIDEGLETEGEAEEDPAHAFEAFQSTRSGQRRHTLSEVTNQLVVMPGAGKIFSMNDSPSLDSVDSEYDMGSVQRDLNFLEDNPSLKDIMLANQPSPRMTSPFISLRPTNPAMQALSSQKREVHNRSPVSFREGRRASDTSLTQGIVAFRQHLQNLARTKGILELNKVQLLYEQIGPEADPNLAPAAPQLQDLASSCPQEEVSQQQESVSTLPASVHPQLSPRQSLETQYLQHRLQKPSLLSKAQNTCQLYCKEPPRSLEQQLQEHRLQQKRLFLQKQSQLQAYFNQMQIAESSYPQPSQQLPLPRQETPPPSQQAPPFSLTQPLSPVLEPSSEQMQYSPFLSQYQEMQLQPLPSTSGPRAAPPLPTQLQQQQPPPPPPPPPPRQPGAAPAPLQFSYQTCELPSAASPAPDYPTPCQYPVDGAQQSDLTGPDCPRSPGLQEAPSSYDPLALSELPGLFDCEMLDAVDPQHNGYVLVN
In short: as §1

[3] = system: LPS-induced TNFα in monocytes; test: Monocytes assay: LPS-triggered TNFα (ELISA); type: cell-based, human; settings: Homo sapiens, Monocyte, LPS-triggered TNFα inhibition
In short: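 CD14+ monocytes were magnetically isolated from human buffy-coat PBMCs, preincubated with compound 1 h at 37 °C (0.2% DMSO), then stimulated with LPS at 200 ng/mL for 4 h. Supernatant TNFα was measured by luminescent sandwich ELISA; percentage inhibition was calculated against controls for each concentration.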

T1 sequence (P57059 whole entry): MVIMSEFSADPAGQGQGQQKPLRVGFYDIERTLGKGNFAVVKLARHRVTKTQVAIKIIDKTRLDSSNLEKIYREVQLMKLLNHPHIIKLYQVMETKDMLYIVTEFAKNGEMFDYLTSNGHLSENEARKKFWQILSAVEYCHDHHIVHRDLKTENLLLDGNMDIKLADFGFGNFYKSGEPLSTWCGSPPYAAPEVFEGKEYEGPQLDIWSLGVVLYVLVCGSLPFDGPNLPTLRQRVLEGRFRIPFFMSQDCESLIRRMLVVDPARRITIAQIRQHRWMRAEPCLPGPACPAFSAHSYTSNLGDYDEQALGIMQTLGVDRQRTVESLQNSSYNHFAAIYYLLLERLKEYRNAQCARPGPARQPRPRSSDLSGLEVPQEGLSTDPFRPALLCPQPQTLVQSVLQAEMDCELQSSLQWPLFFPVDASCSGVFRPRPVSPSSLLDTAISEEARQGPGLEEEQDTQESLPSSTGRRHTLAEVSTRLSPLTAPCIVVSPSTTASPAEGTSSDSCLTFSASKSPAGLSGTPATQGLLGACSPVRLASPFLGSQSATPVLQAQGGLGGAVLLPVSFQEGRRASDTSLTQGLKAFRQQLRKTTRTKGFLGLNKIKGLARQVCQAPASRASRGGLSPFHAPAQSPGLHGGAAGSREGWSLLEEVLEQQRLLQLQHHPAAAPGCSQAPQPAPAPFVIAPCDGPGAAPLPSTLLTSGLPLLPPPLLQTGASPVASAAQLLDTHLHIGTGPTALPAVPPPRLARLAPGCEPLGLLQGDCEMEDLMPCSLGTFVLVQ

| IC50 [1] [µM] | IC50 [2] [µM] | EC50 [3] [µM] | SMILES |
| --- | --- | --- | --- |
| 0.1 to 0.5 | 0.1 to 0.5 | 0.1 to 1 | COc1cc(-c2cnc3cc(C(C)O)ccn23)cc(OC(F)F)c1C(=O)NC1CC1 (stereo not drawn) [Cpd 140, N-cyclopropyl-2-(difluoromethoxy)-4-[7-(1-hydroxyethyl)imidazo[1,2-a]pyridin-3-yl]-6-methoxy-benzamide] |
| > 0.5 | > 0.5 | 1 to 5 | COc1cc(-c2cnc3cc(C(C)N4CCCCC4)ccn23)cc(OC(F)F)c1C(=O)NC1CC1 (stereo not drawn) [Cpd 146, N-cyclopropyl-2-(difluoromethoxy)-6-methoxy-4-[7-[1-(1-piperidyl)ethyl]imidazo[1,2-a]pyridin-3-yl]benzamide] |
| > 0.5 | > 0.5 | 0.1 to 1 | COc1cc(-c2cnc3cc(C(C)(C)CO)ccn23)cc(OC(F)F)c1C(=O)NC1CC1 [Cpd 150, N-cyclopropyl-2-(difluoromethoxy)-4-[7-(2-hydroxy-1,1-dimethyl-ethyl)imidazo[1,2-a]pyridin-3-yl]-6-methoxy-benzamide] |
| > 0.5 | > 0.5 | 0.1 to 1 | COc1cc(-c2cnc3cc(C(C)(C)CN4CCOCC4)ccn23)cc(OC(F)F)c1C(=O)NC1CC1 [Cpd 160, N-cyclopropyl-2-(difluoromethoxy)-4-[7-(1,1-dimethyl-2-morpholino-ethyl)imidazo[1,2-a]pyridin-3-yl]-6-methoxy-benzamide] |
| > 0.5 | 0.1 to 0.5 | 0.1 to 1 | COc1cc(-c2cnc3cc(C4CCOCC4)c(F)cn23)cc(OC(F)F)c1C(=O)NC1CC1 [Cpd 166, N-cyclopropyl-2-(difluoromethoxy)-4-(6-fluoro-7-tetrahydropyran-4-yl-imidazo[1,2-a]pyridin-3-yl)-6-methoxy-benzamide] |
| 0.1 to 0.5 | 0.01 to 0.1 | 0.1 to 1 | COc1cc(-c2cnc3cc(C4CCC4)c(F)cn23)cc(OC(F)F)c1C(=O)NC1CC1 [Cpd 168, 4-(7-cyclobutyl-6-fluoro-imidazo[1,2-a]pyridin-3-yl)-N-cyclopropyl-2-(difluoromethoxy)-6-methoxy-benzamide] |
| > 0.5 | > 0.5 | 1 to 5 | COc1cc(-c2cnc3cc(C4(O)CCOCC4)ccn23)cc(OC(F)F)c1C(=O)NC1CC1 [Cpd 170, N-cyclopropyl-2-(difluoromethoxy)-4-[7-(4-hydroxytetrahydropyran-4-yl)imidazo[1,2-a]pyridin-3-yl]-6-methoxy-benzamide] |
| > 0.5 | > 0.5 | 1 to 5 | COc1cc(-c2cnc3cc(C4CCCN4C)ccn23)cc(OC(F)F)c1C(=O)NC1CC1 (stereo not drawn) [Cpd 171, N-cyclopropyl-2-(difluoromethoxy)-6-methoxy-4-[7-(1-methylpyrrolidin-2-yl)imidazo[1,2-a]pyridin-3-yl]benzamide] |
| > 0.5 | > 0.5 | 0.1 to 1 | COc1cc(-c2cnc3cc(C(C)(C)C(C)O)ccn23)cc(OC(F)F)c1C(=O)NC1CC1 (stereo not drawn) [Cpd 172, N-cyclopropyl-2-(difluoromethoxy)-4-[7-(2-hydroxy-1,1-dimethyl-propyl)imidazo[1,2-a]pyridin-3-yl]-6-methoxy-benzamide] |
| > 0.5 | 0.1 to 0.5 | 0.1 to 1 | COc1cc(-c2cnc3cc(C4(O)CCC4)ccn23)cc(OC(F)F)c1C(=O)NC1CC1 [Cpd 173, N-cyclopropyl-2-(difluoromethoxy)-4-[7-(1-hydroxycyclobutyl)imidazo[1,2-a]pyridin-3-yl]-6-methoxy-benzamide] |
| > 0.5 | 0.1 to 0.5 | 1 to 5 | COc1cc(-c2cnc3cc(C(O)CC#N)ccn23)cc(OC(F)F)c1C(=O)NC1CC1 (stereo not drawn) [Cpd 175, 4-[7-(2-cyano-1-hydroxy-ethyl)imidazo[1,2-a]pyridin-3-yl]-N-cyclopropyl-2-(difluoromethoxy)-6-methoxy-benzamide] |
| > 0.5 | > 0.5 | 0.1 to 1 | COc1cc(-c2cnc3cc(C(C)(C#N)CO)ccn23)cc(OC(F)F)c1C(=O)NC1CC1 (stereo not drawn) [Cpd 176, 4-[7-(1-cyano-2-hydroxy-1-methyl-ethyl)imidazo[1,2-a]pyridin-3-yl]-N-cyclopropyl-2-(difluoromethoxy)-6-methoxy-benzamide] |
| > 0.5 | > 0.5 | 0.1 to 1 | COc1cc(-c2cnc3cc(C4COCCN4C)ccn23)cc(OC(F)F)c1C(=O)NC1CC1 (stereo not drawn) [Cpd 193, N-cyclopropyl-2-(difluoromethoxy)-6-methoxy-4-[7-(4-methylmorpholin-3-yl)imidazo[1,2-a]pyridin-3-yl]benzamide] |
| > 0.5 | > 0.5 | 0.1 to 1 | COCC(C)(C#N)c1ccn2c(-c3cc(OC)c(C(=O)NC4CC4)c(OC(F)F)c3)cnc2c1 (stereo not drawn) [Cpd 195, 4-[7-(1-cyano-2-methoxy-1-methyl-ethyl)imidazo[1,2-a]pyridin-3-yl]-N-cyclopropyl-2-(difluoromethoxy)-6-methoxy-benzamide] |
| > 0.5 | 0.1 to 0.5 | 0.1 to 1 | COc1cc(-c2cnc3cc(C4(O)CCC4)ccn23)cc(OC(F)F)c1C(=O)N[C@@H]1C[C@@H]1F [Cpd 205, 2-(difluoromethoxy)-N-[(1R,2S)-2-fluorocyclopropyl]-4-[7-(1-hydroxycyclobutyl)imidazo[1,2-a]pyridin-3-yl]-6-methoxy-benzamide] |
| 0.1 to 0.5 | 0.01 to 0.1 | 0.1 to 1 | COc1cc(-c2cnc3cc(C4COC4)ccn23)cc(OC(F)F)c1C(=O)N[C@@H]1C[C@@H]1F [Cpd 206, 2-(difluoromethoxy)-N-[(1R,2S)-2-fluorocyclopropyl]-6-methoxy-4-[7-(oxetan-3-yl)imidazo[1,2-a]pyridin-3-yl]benzamide] |
| > 0.5 | 0.1 to 0.5 | 0.1 to 1 | COc1cc(-c2cnc3cc(C4(F)COC4)ccn23)cc(OC(F)F)c1C(=O)NC1CC1 [Cpd 207, N-cyclopropyl-2-(difluoromethoxy)-4-[7-(3-fluorooxetan-3-yl)imidazo[1,2-a]pyridin-3-yl]-6-methoxy-benzamide] |
| > 0.5 | > 0.5 | 0.0001 to 0.1 | COc1cc(-c2cnn3cc(C(C)(C)C#N)ccc23)cc(OC(F)F)c1C(=O)NC1CC1 [Cpd 208, 4-[6-(1-cyano-1-methyl-ethyl)pyrazolo[1,5-a]pyridin-3-yl]-N-cyclopropyl-2-(difluoromethoxy)-6-methoxy-benzamide] |
| > 0.5 | 0.1 to 0.5 | 0.1 to 1 | COc1cc(-c2cnc3cc(C(C)(C)O)ccn23)cc(OC(F)F)c1C(=O)N[C@@H]1C[C@@H]1F [Cpd 211, 2-(difluoromethoxy)-N-[(1R,2S)-2-fluorocyclopropyl]-4-[7-(1-hydroxy-1-methyl-ethyl)imidazo[1,2-a]pyridin-3-yl]-6-methoxy-benzamide] |
| 0.1 to 0.5 | 0.1 to 0.5 | 0.1 to 1 | COc1cc(-c2cnn3cc(C4COC4)ccc23)cc(OC(F)F)c1C(=O)NC1CC1 [Cpd 216, N-cyclopropyl-2-(difluoromethoxy)-6-methoxy-4-[6-(oxetan-3-yl)pyrazolo[1,5-a]pyridin-3-yl]benzamide] |
| 0.1 to 0.5 | 0.01 to 0.1 | 0.0001 to 0.1 | COc1cc(-c2cnn3cc(C4COC4)ccc23)cc(OC(F)F)c1C(=O)N[C@@H]1C[C@@H]1F [Cpd 218, 2-(difluoromethoxy)-N-[(1R,2S)-2-fluorocyclopropyl]-6-methoxy-4-[6-(oxetan-3-yl)pyrazolo[1,5-a]pyridin-3-yl]benzamide] |
| 0.1 to 0.5 | 0.01 to 0.1 | 0.1 to 1 | COc1cc(-c2cnc3cc(C4(F)COC4)ccn23)cc(OC(F)F)c1C(=O)N[C@@H]1C[C@@H]1F [Cpd 224, 2-(difluoromethoxy)-N-[(1R,2S)-2-fluorocyclopropyl]-4-[7-(3-fluorooxetan-3-yl)imidazo[1,2-a]pyridin-3-yl]-6-methoxy-benzamide] |
| > 0.5 | 0.1 to 0.5 | 0.1 to 1 | COc1cc(-c2cnn3cc(C(C)(C)O)ccc23)cc(OC(F)F)c1C(=O)N[C@@H]1C[C@@H]1F [Cpd 227, 2-(difluoromethoxy)-N-[(1R,2S)-2-fluorocyclopropyl]-4-[6-(1-hydroxy-1-methyl-ethyl)pyrazolo[1,5-a]pyridin-3-yl]-6-methoxy-benzamide] |
| > 0.5 | 0.1 to 0.5 | 0.1 to 1 | COc1cc(-c2cnc3cc(C(C)(C)C#N)cnn23)cc(OC(F)F)c1C(=O)N[C@@H]1C[C@@H]1F [Cpd 228, 4-[7-(1-cyano-1-methyl-ethyl)imidazo[1,2-b]pyridazin-3-yl]-2-(difluoromethoxy)-N-[(1R,2S)-2-fluorocyclopropyl]-6-methoxy-benzamide] |
| > 0.5 | > 0.5 | 0.1 to 1 | COc1cc(-c2cnn3cc(C(C)(C)C#N)cnc23)cc(OC(F)F)c1C(=O)N[C@@H]1C[C@@H]1F [Cpd 231, 4-[6-(1-cyano-1-methyl-ethyl)pyrazolo[1,5-a]pyrimidin-3-yl]-2-(difluoromethoxy)-N-[(1R,2S)-2-fluorocyclopropyl]-6-methoxy-benzamide] |
| > 0.5 | 0.1 to 0.5 | 0.1 to 1 | COc1cc(-c2cnn3cc(C4COCCO4)ccc23)cc(OC(F)F)c1C(=O)NC1CC1 (stereo not drawn) [Cpd 232, N-cyclopropyl-2-(difluoromethoxy)-4-[6-(1,4-dioxan-2-yl)pyrazolo[1,5-a]pyridin-3-yl]-6-methoxy-benzamide] |

| SMILES | IC50 [1] [µM] | IC50 [2] [µM] | EC50 [3] [µM] |
| --- | --- | --- | --- |
| COc1cc(-c2cnc3cc(C4COC4)ccn23)cc(OC(F)F)c1C(=O)NC1CC1 [Cpd 174, N-cyclopropyl-2-(difluoromethoxy)-6-methoxy-4-[7-(oxetan-3-yl)imidazo[1,2-a]pyridin-3-yl]benzamide] | 0.1 to 0.5 | 0.01 to 0.1 | 0.1 to 1 |
